Data taken from paper PMC4209961 (Journal of nuclear medicine : official publication, Society …, 2013).

Tested on: U87MG tumors
Experiment: Tumor growth
Assay type: in vivo, athymic nude mice
Settings: two doses of doxorubicin 5 mg/kg/dose two days apart, tail vein; at day 5 after the treatment started, P < 0.05

In the case of `COc1cccc2c1C(=O)c1c(O)c3c(c(O)c1C2=O)C[C@@](O)(C(=O)CO)C[C@@H]3O[C@H]1C[C@H](N)[C@H](O)[C@H](C)O1` [doxorubicin], the tumor growth response is reported as “significant growth inhibition”.
